Legend:
Test in all cases: relative viability (nuclei count vs DMSO), 5 days (fraction); higher = more cells survive
YM155 + Navitoclax = compound: COCC[n+]1c2c(n(Cc3cnccn3)c1C)C(=O)c1ccccc1C2=O [YM155] + CC1(C)CCC(c2ccc(Cl)cc2)=C(CN2CCN(c3ccc(C(=O)NS(=O)(=O)c4ccc(N[C@H](CCN5CCOCC5)CSc5ccccc5)c(S(=O)(=O)C(F)(F)F)c4)cc3)CC2)C1 [Navitoclax] (partner 0.5 µM)
Method in brief: (§1)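 Values are medians from duplicate plates. Each reflects relative viability, defined as the nuclei count of treated wells over that of vehicle wells. Lung cancer cell lines in 1536-well plates were pin-tool dosed one day after seeding with one drug alone or with a fixed anchor-drug dose plus five library-drug doses (not always all listed) in √10 steps, then fixed, stained and imaged at 4× after 5 days.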

Quizartinib + Phenformin = compound: CC(C)(C)c1cc(NC(=O)Nc2ccc(-c3cn4c(n3)sc3cc(OCCN5CCOCC5)ccc34)cc2)no1 [Quizartinib] + N=C(N)NC(=N)NCCc1ccccc1 [Phenformin] (partner 250 µM)
Method in brief: as §1

Quizartinib + Trametinib = compound: CC(C)(C)c1cc(NC(=O)Nc2ccc(-c3cn4c(n3)sc3cc(OCCN5CCOCC5)ccc34)cc2)no1 [Quizartinib] + CC(=O)Nc1cccc(-n2c(=O)n(C3CC3)c(=O)c3c(Nc4ccc(I)cc4F)n(C)c(=O)c(C)c32)c1 [Trametinib] (partner 0.02 µM)
Method in brief: as §1

Quizartinib + Decitabine = compound: CC(C)(C)c1cc(NC(=O)Nc2ccc(-c3cn4c(n3)sc3cc(OCCN5CCOCC5)ccc34)cc2)no1 [Quizartinib] + Nc1ncn([C@H]2C[C@H](O)[C@@H](CO)O2)c(=O)n1 [Decitabine] (partner 2 µM)
Method in brief: as §1

Cell Line: NCI-H1993
- relative viability (YM155 + Navitoclax; first compound 0.002 µM): 0.968
- relative viability (YM155 + Navitoclax; first compound 0.006325 µM): 0.951
- relative viability (YM155 + Navitoclax; first compound 0.02 µM): 0.847
- relative viability (YM155 + Navitoclax; first compound 0.06325 µM): 0.795
- relative viability (Quizartinib + Phenformin; first compound 0.001 µM): 0.478
- relative viability (Quizartinib + Phenformin; first compound 0.003162 µM): 0.48
- relative viability (Quizartinib + Phenformin; first compound 0.01 µM): 0.523
- relative viability (Quizartinib + Phenformin; first compound 0.03162 µM): 0.441
- relative viability (Quizartinib + Phenformin; first compound 0.1 µM): 0.625
- relative viability (Quizartinib + Trametinib; first compound 0.001 µM): 0.445
- relative viability (Quizartinib + Trametinib; first compound 0.003162 µM): 0.46
- relative viability (Quizartinib + Trametinib; first compound 0.01 µM): 0.576
- relative viability (Quizartinib + Trametinib; first compound 0.03162 µM): 0.619
- relative viability (Quizartinib + Trametinib; first compound 0.1 µM): 0.527
- relative viability (Quizartinib + Decitabine; first compound 0.001 µM): 0.564
- relative viability (Quizartinib + Decitabine; first compound 0.003162 µM): 0.673
- relative viability (Quizartinib + Decitabine; first compound 0.01 µM): 0.624
- relative viability (Quizartinib + Decitabine; first compound 0.03162 µM): 0.632
- relative viability (Quizartinib + Decitabine; first compound 0.1 µM): 0.615

Cell Line: PC-3 [JPC-3]
- relative viability (YM155 + Navitoclax; first compound 0.002 µM): 0.867
- relative viability (YM155 + Navitoclax; first compound 0.006325 µM): 0.847
- relative viability (YM155 + Navitoclax; first compound 0.02 µM): 0.871
- relative viability (YM155 + Navitoclax; first compound 0.06325 µM): 0.887
- relative viability (Quizartinib + Phenformin; first compound 0.001 µM): 0.453
- relative viability (Quizartinib + Phenformin; first compound 0.003162 µM): 0.466
- relative viability (Quizartinib + Phenformin; first compound 0.01 µM): 0.469
- relative viability (Quizartinib + Phenformin; first compound 0.03162 µM): 0.481
- relative viability (Quizartinib + Phenformin; first compound 0.1 µM): 0.506
- relative viability (Quizartinib + Trametinib; first compound 0.001 µM): 0.672
- relative viability (Quizartinib + Trametinib; first compound 0.003162 µM): 0.754
- relative viability (Quizartinib + Trametinib; first compound 0.01 µM): 0.705
- relative viability (Quizartinib + Trametinib; first compound 0.03162 µM): 0.663
- relative viability (Quizartinib + Trametinib; first compound 0.1 µM): 0.643
- relative viability (Quizartinib + Decitabine; first compound 0.001 µM): 0.837
- relative viability (Quizartinib + Decitabine; first compound 0.003162 µM): 0.843
- relative viability (Quizartinib + Decitabine; first compound 0.01 µM): 0.841
- relative viability (Quizartinib + Decitabine; first compound 0.03162 µM): 0.862
- relative viability (Quizartinib + Decitabine; first compound 0.1 µM): 0.831

Cell Line: NCI-H596
- relative viability (YM155 + Navitoclax; first compound 0.006325 µM): 0.972
- relative viability (YM155 + Navitoclax; first compound 0.02 µM): 1.09
- relative viability (YM155 + Navitoclax; first compound 0.06325 µM): 1.03
- relative viability (Quizartinib + Phenformin; first compound 0.001 µM): 0.834
- relative viability (Quizartinib + Phenformin; first compound 0.003162 µM): 0.681
- relative viability (Quizartinib + Phenformin; first compound 0.01 µM): 0.712
- relative viability (Quizartinib + Phenformin; first compound 0.03162 µM): 0.667
- relative viability (Quizartinib + Phenformin; first compound 0.1 µM): 0.714
- relative viability (Quizartinib + Trametinib; first compound 0.001 µM): 0.794
- relative viability (Quizartinib + Trametinib; first compound 0.003162 µM): 0.695
- relative viability (Quizartinib + Trametinib; first compound 0.01 µM): 0.805
- relative viability (Quizartinib + Trametinib; first compound 0.03162 µM): 0.77
- relative viability (Quizartinib + Trametinib; first compound 0.1 µM): 0.8
- relative viability (Quizartinib + Decitabine; first compound 0.001 µM): 1.03
- relative viability (Quizartinib + Decitabine; first compound 0.003162 µM): 0.938
- relative viability (Quizartinib + Decitabine; first compound 0.01 µM): 1.09
- relative viability (Quizartinib + Decitabine; first compound 0.03162 µM): 0.993
- relative viability (Quizartinib + Decitabine; first compound 0.1 µM): 0.901

Cell Line: NCI-H2170
- relative viability (YM155 + Navitoclax; first compound 0.002 µM): 0.545
- relative viability (YM155 + Navitoclax; first compound 0.006325 µM): 0.572
- relative viability (YM155 + Navitoclax; first compound 0.02 µM): 0.524
- relative viability (YM155 + Navitoclax; first compound 0.06325 µM): 0.692
- relative viability (Quizartinib + Phenformin; first compound 0.001 µM): 0.415
- relative viability (Quizartinib + Phenformin; first compound 0.003162 µM): 0.432
- relative viability (Quizartinib + Phenformin; first compound 0.01 µM): 0.403
- relative viability (Quizartinib + Phenformin; first compound 0.03162 µM): 0.436
- relative viability (Quizartinib + Phenformin; first compound 0.1 µM): 0.378
- relative viability (Quizartinib + Trametinib; first compound 0.001 µM): 0.868
- relative viability (Quizartinib + Trametinib; first compound 0.003162 µM): 0.907
- relative viability (Quizartinib + Trametinib; first compound 0.01 µM): 0.92
- relative viability (Quizartinib + Trametinib; first compound 0.03162 µM): 1.01
- relative viability (Quizartinib + Trametinib; first compound 0.1 µM): 0.947
- relative viability (Quizartinib + Decitabine; first compound 0.001 µM): 0.424
- relative viability (Quizartinib + Decitabine; first compound 0.003162 µM): 0.466
- relative viability (Quizartinib + Decitabine; first compound 0.01 µM): 0.468
- relative viability (Quizartinib + Decitabine; first compound 0.03162 µM): 0.578
- relative viability (Quizartinib + Decitabine; first compound 0.1 µM): 0.44

Cell Line: NCI-H2087
- relative viability (YM155 + Navitoclax; first compound 0.002 µM): 1.03
- relative viability (YM155 + Navitoclax; first compound 0.006325 µM): 0.875
- relative viability (YM155 + Navitoclax; first compound 0.02 µM): 0.969
- relative viability (YM155 + Navitoclax; first compound 0.06325 µM): 0.816
- relative viability (Quizartinib + Phenformin; first compound 0.003162 µM): 0.429
- relative viability (Quizartinib + Phenformin; first compound 0.01 µM): 0.458
- relative viability (Quizartinib + Phenformin; first compound 0.03162 µM): 0.369
- relative viability (Quizartinib + Phenformin; first compound 0.1 µM): 0.516
- relative viability (Quizartinib + Trametinib; first compound 0.001 µM): 0.233
- relative viability (Quizartinib + Trametinib; first compound 0.003162 µM): 0.217
- relative viability (Quizartinib + Trametinib; first compound 0.01 µM): 0.223
- relative viability (Quizartinib + Trametinib; first compound 0.03162 µM): 0.202
- relative viability (Quizartinib + Trametinib; first compound 0.1 µM): 0.19
- relative viability (Quizartinib + Decitabine; first compound 0.001 µM): 0.257
- relative viability (Quizartinib + Decitabine; first compound 0.003162 µM): 0.238
- relative viability (Quizartinib + Decitabine; first compound 0.01 µM): 0.332
- relative viability (Quizartinib + Decitabine; first compound 0.03162 µM): 0.249
- relative viability (Quizartinib + Decitabine; first compound 0.1 µM): 0.287

Cell Line: COR-L 105
- relative viability (YM155 + Navitoclax; first compound 0.002 µM): 0.672
- relative viability (YM155 + Navitoclax; first compound 0.006325 µM): 0.892
- relative viability (YM155 + Navitoclax; first compound 0.02 µM): 0.783
- relative viability (YM155 + Navitoclax; first compound 0.06325 µM): 0.501
- relative viability (Quizartinib + Phenformin; first compound 0.001 µM): 0.449
- relative viability (Quizartinib + Phenformin; first compound 0.003162 µM): 0.495
- relative viability (Quizartinib + Phenformin; first compound 0.01 µM): 0.471
- relative viability (Quizartinib + Phenformin; first compound 0.03162 µM): 0.406
- relative viability (Quizartinib + Phenformin; first compound 0.1 µM): 0.426
- relative viability (Quizartinib + Trametinib; first compound 0.001 µM): 0.449
- relative viability (Quizartinib + Trametinib; first compound 0.003162 µM): 0.445
- relative viability (Quizartinib + Trametinib; first compound 0.01 µM): 0.507
- relative viability (Quizartinib + Trametinib; first compound 0.1 µM): 0.516
- relative viability (Quizartinib + Decitabine; first compound 0.001 µM): 0.642
- relative viability (Quizartinib + Decitabine; first compound 0.003162 µM): 0.653
- relative viability (Quizartinib + Decitabine; first compound 0.01 µM): 0.641
- relative viability (Quizartinib + Decitabine; first compound 0.1 µM): 0.625

Cell Line: NCI-H2126
- relative viability (YM155 + Navitoclax; first compound 0.002 µM): 0.866
- relative viability (YM155 + Navitoclax; first compound 0.006325 µM): 0.877
- relative viability (YM155 + Navitoclax; first compound 0.02 µM): 0.871
- relative viability (YM155 + Navitoclax; first compound 0.06325 µM): 0.875
- relative viability (Quizartinib + Phenformin; first compound 0.001 µM): 0.518
- relative viability (Quizartinib + Phenformin; first compound 0.003162 µM): 0.58
- relative viability (Quizartinib + Phenformin; first compound 0.01 µM): 0.534
- relative viability (Quizartinib + Phenformin; first compound 0.1 µM): 0.576
- relative viability (Quizartinib + Trametinib; first compound 0.001 µM): 0.575
- relative viability (Quizartinib + Trametinib; first compound 0.003162 µM): 0.552
- relative viability (Quizartinib + Trametinib; first compound 0.01 µM): 0.604
- relative viability (Quizartinib + Trametinib; first compound 0.03162 µM): 0.53
- relative viability (Quizartinib + Trametinib; first compound 0.1 µM): 0.492
- relative viability (Quizartinib + Decitabine; first compound 0.001 µM): 0.623
- relative viability (Quizartinib + Decitabine; first compound 0.003162 µM): 0.519
- relative viability (Quizartinib + Decitabine; first compound 0.01 µM): 0.693
- relative viability (Quizartinib + Decitabine; first compound 0.03162 µM): 0.557
- relative viability (Quizartinib + Decitabine; first compound 0.1 µM): 0.592

Cell Line: NCI-H322M
- relative viability (YM155 + Navitoclax; first compound 0.002 µM): 1.24
- relative viability (YM155 + Navitoclax; first compound 0.006325 µM): 1.23
- relative viability (YM155 + Navitoclax; first compound 0.02 µM): 1.28
- relative viability (YM155 + Navitoclax; first compound 0.06325 µM): 1.47
- relative viability (Quizartinib + Phenformin; first compound 0.001 µM): 0.541
- relative viability (Quizartinib + Phenformin; first compound 0.003162 µM): 0.827
- relative viability (Quizartinib + Phenformin; first compound 0.01 µM): 0.837
- relative viability (Quizartinib + Phenformin; first compound 0.03162 µM): 0.547
- relative viability (Quizartinib + Phenformin; first compound 0.1 µM): 0.744
- relative viability (Quizartinib + Trametinib; first compound 0.001 µM): 0.482
- relative viability (Quizartinib + Trametinib; first compound 0.003162 µM): 0.536
- relative viability (Quizartinib + Trametinib; first compound 0.01 µM): 0.617
- relative viability (Quizartinib + Trametinib; first compound 0.03162 µM): 0.504
- relative viability (Quizartinib + Trametinib; first compound 0.1 µM): 0.536
- relative viability (Quizartinib + Decitabine; first compound 0.001 µM): 0.685
- relative viability (Quizartinib + Decitabine; first compound 0.003162 µM): 0.653
- relative viability (Quizartinib + Decitabine; first compound 0.01 µM): 0.681
- relative viability (Quizartinib + Decitabine; first compound 0.03162 µM): 0.72
- relative viability (Quizartinib + Decitabine; first compound 0.1 µM): 0.763

Reference: the supplement of paper PMC10307832
